Experimental data taken from patent US20050176655A1, “Novel macrolide derivatives havaing effect of potentiating antifungal activity” (priority 2002, published 2005).

Tests used:
[1] = tested on: Candida albicans ATCC 64548; assay: Paper disk method, enhancing action for activities of azole antifungal agents; format: cell-based; details: 24 hours; for Inhibition activity (inhibition ring mm) C. albicans ATCC 64548 GYM / Transparency of the inhibition ring C. albicans ATCC 64548 GYM: miconazole 0.03 μg/ml; for Inhibition activity (inhibition ring mm) C. albicans ATCC 64548 GYF / Transparency of the inhibition ring C. albicans ATCC 64548 GYF: fluconazole 0.5 μg/ml
Description: (§1) Test organisms used were Candida albicans ATCC 64548, fluconazole resistant Candida albicans ATCC 64550 and Aspergillus niger ATCC 6275. Candida spp. were cultured in Waksman broth (glucose 2.0%, peptone 0.5%, dry yeast 0.3%, meat extract 0.5%, NaCl 0.5% and CaCO3 0.3%, pH 7.0) at 27° C. for 40 hours, then 0.1% thereof was inoculated on GY agar medium (glucose 1.0%, yeast extract 0.5% and agar 0.8%, pH 6.0). Spore suspension 0.2% of Aspergillus niger ATCC 6275 was inoculated on GY agar medium.
(§2) Azole antifungal agents used were miconazole (Sigma Inc., the U.S.) and fluconazole (ICN Pharmaceuticals, Inc., the U.S.), and were added at concentrations without affecting growth on each test organisms follows.
Candida albicans ATCC 64548: miconazole 0.03 μg/ml or fluconazole 0.5 μg/ml.
(§3) In the above medium, a medium added with miconazole to GY medium (control) is designated as GYM, and a medium added with fluconazole is designated as GYF. Activities were assessed by means of paper disk method (thickness: 8 mm, ADVANTEC MFS INC., Japan). Diameter of inhibition ring is expressed with mm unit after culturing Candida spp. for 24 hours and Aspergillus niger ATCC 6275 for 48 hours. Transparency of the inhibition ring is assessed with 5 degrees of A, B, C, D and E (transparence<A<B<C<D<E<opaque).

[2] = tested on: Aspergillus niger ATCC 6275; assay: as above; format: cell-based; details: 48 hours; for Inhibition activity (inhibition ring mm) A. niger ATCC 6275 GYF / Transparency of the inhibition ring A. niger ATCC 6275 GYF: fluconazole 10 μg/ml
Description: as §1, §2
Aspergillus niger ATCC 6275: miconazole 0.1 μg/ml or fluconazole 10 μg/ml.
as §3

[3] = 100 μg/8 mm disk, GYM, miconazole 0.1 μg/ml
[4] = 50 μg/8 mm disk, GY medium (control, no azole)

Compound | Inhibition activity (inhibition ring mm) C. albicans ATCC 64548 GYM ([1]; 10 μg/8 mm disk) [mm] | Transparency of the inhibition ring C. albicans ATCC 64548 GYM ([1]; 10 μg/8 mm disk) | Inhibition activity (inhibition ring mm) C. albicans ATCC 64548 GYM ([1]; 50 μg/8 mm disk) [mm] | Transparency of the inhibition ring C. albicans ATCC 64548 GYM ([1]; 50 μg/8 mm disk) | Inhibition activity (inhibition ring mm) C. albicans ATCC 64548 GYM ([1]; 100 μg/8 mm disk) [mm] | Transparency of the inhibition ring C. albicans ATCC 64548 GYM ([1]; 100 μg/8 mm disk) | also measured
2′,4″,13-Tri-O-anhydro-pseudoerythromycin A 6,9-hemiketal [Compound 719] | 9 | E (Growth of test organism was inhibited 35% or less.) | 10 | E (Growth of test organism was inhibited 35% or less.) | 13 | E (Growth of test organism was inhibited 35% or less.) | 
CCC(O)C(C)(O)C1OC(=O)C(C)C(OC2CC(C)(OC)C(O)C(C)O2)C(C)C(OC2OC(C)CC(N(C)CCN(C)C3CC(C)OC(OC4C(C)C(OC5CC(C)(OC)C(O)C(C)O5)C(C)C(=O)OC(C(C)(O)C(O)CC)C(C)C5=C(C)CC4(C)O5)C3O)C2O)C2(C)CC(C)=C(O2)C1C (centres unmarked) [Compound 741, 3′-de-N-methyl-3′-N-{-amino-(3′-de-N-methyl-anhydro-pseudoerythromycin A 6,9-hemiketal)}ethyl-anhydro-pseudoerythromycinA 6,9-hemiketal] |  |  |  |  | 14 | D (Growth of test organism was inhibited 35% or more and 55% or less.) | 
CCC1OC(=O)C(C)C(OC2CC(C)(OC)C(O)C(C)O2)C(C)C(OC2OC(C)CC(N(C)CCN(C)C3CC(C)OC(OC4C(C)C(OC5CC(C)(OC)C(O)C(C)O5)C(C)C(=O)OC(CC)C(C)(O)C(O)C(C)C(=O)C(C)CC4(C)O)C3O)C2O)C(C)(O)CC(C)C(=O)C(C)C(O)C1(C)O (centres unmarked) [Compound 752, 3′-de-N-methyl-3′-N-{2-amino-(3′-de-N-methyl-erythromycin A)}ethyl-erythromycin A] |  |  |  |  | 12 | E (Growth of test organism was inhibited 35% or less.) | Inhibition activity (inhibition ring mm) A. niger ATCC 6275 GYF ([2]; 50 μg/8 mm disk): 17 mm; Transparency of the inhibition ring A. niger ATCC 6275 GYF ([2]; 50 μg/8 mm disk): E (Growth of test organism was inhibited 35% or less.)
CCC1OC(=O)C(C)C(OC2CC(C)(OC)C(O)C(C)O2)C(C)C(OC2OC(C)CC(N(C)CCN(C)C3CC(C)OC(OC4C(C)C(OC5CC(C)(OC)C(O)C(C)O5)C(C)C(=O)OC(CC)C(C)(O)C(O)C(C)C(=O)C(C)CC4(C)OC)C3O)C2O)C(C)(OC)CC(C)C(=O)C(C)C(O)C1(C)O (centres unmarked) [Compound 753, 3′-de-N-methyl-3′-N-{2-amino-(3′-de-N-methyl-clarythromycin A)}ethyl-clarythromycin] | 17 | C (Growth of test organism was inhibited 55% or more and 75% or less.) | 22 | C (Growth of test organism was inhibited 55% or more and 75% or less.) |  |  | Inhibition activity (inhibition ring mm) A. niger ATCC 6275 GYM [2, 3]: 13 mm; Transparency of the inhibition ring A. niger ATCC 6275 GYM [2, 3]: E (Growth of test organism was inhibited 35% or less.)
CCC1OC(=O)C(C)C(OC2CC(C)(OC)C(O)C(C)O2)C(C)C(OC2OC(C)CC(N(C)CC=CCN(C)C3CC(C)OC(OC4C(C)C(OC5CC(C)(OC)C(O)C(C)O5)C(C)C(=O)OC(CC)C(C)(O)C(O)C(C)C(=O)C(C)CC4(C)O)C3O)C2O)C(C)(O)CC(C)C(=O)C(C)C(O)C1(C)O (centres unmarked) [Compound 757, 3′-de-N-methyl-3′-N-{4-amino-(3′-de-N-methyl-erythromycin A)}-2(E) -butenyl-erythromycin A] |  |  |  |  | 18 | D (Growth of test organism was inhibited 35% or more and 55% or less.) | Inhibition activity (inhibition ring mm) A. niger ATCC 6275 GY [2, 4]: 10 mm; Transparency of the inhibition ring A. niger ATCC 6275 GY [2, 4]: E (Growth of test organism was inhibited 35% or less.); Inhibition activity (inhibition ring mm) C. albicans ATCC 64548 GYF ([1]; 100 μg/8 mm disk): 17 mm; Transparency of the inhibition ring C. albicans ATCC 64548 GYF ([1]; 100 μg/8 mm disk): E (Growth of test organism was inhibited 35% or less.)
CCC1OC(=O)C(C)C(OC2CC(C)(OC)C(O)C(C)O2)C(C)C(OC2OC(C)CC(N(C)CC=CCN(C)C3CC(C)OC(OC4C(C)C(OC5CC(C)(OC)C(O)C(C)O5)C(C)C(=O)OC(CC)C(C)(O)C(O)C(C)C(=O)C(C)CC4(C)OC)C3O)C2O)C(C)(OC)CC(C)C(=O)C(C)C(O)C1(C)O (centres unmarked) [Compound 758, 3′-de-N-methyl-3′-N-{4-amino-(3′-de-N-methyl-clarythromycin A)}-2(E)-butenyl-clarythromycin A] | 11 | E (Growth of test organism was inhibited 35% or less.) | 12 | D (Growth of test organism was inhibited 35% or more and 55% or less.) |  |  | Inhibition activity (inhibition ring mm) C. albicans ATCC 64548 GYF ([1]; 100 μg/8 mm disk): 15 mm; Transparency of the inhibition ring C. albicans ATCC 64548 GYF ([1]; 100 μg/8 mm disk): E (Growth of test organism was inhibited 35% or less.)
CCC1OC(=O)C(C)C(OC2CC(C)(OC)C(O)C(C)O2)C(C)C(OC2OC(C)CC(N(C)C)C2O)C(C)(O)CC(C)C(=NOCC=CCON=C2C(C)CC(C)(O)C(OC3OC(C)CC(N(C)C)C3O)C(C)C(OC3CC(C)(OC)C(O)C(C)O3)C(C)C(=O)OC(CC)C(C)(O)C(O)C2C)C(C)C(O)C1(C)O (centres unmarked) [Compound 759, 9(E)-4-{9(E)-oxime-erythromycin A}-2-butenyloxime-erythromycin A] |  |  |  |  | 13 | D (Growth of test organism was inhibited 35% or more and 55% or less.) | 
CCC1OC(=O)C(C)C(OC2CC(C)(OC)C(O)C(C)O2)C(C)C(OC2OC(C)CC(N(C)C)C2O)C(C)(O)CC(C)C(=NOCC=CCN2CCN(CC=CCON=C3C(C)CC(C)(O)C(OC4OC(C)CC(N(C)C)C4O)C(C)C(OC4CC(C)(OC)C(O)C(C)O4)C(C)C(=O)OC(CC)C(C)(O)C(O)C3C)CC2)C(C)C(O)C1(C)O (centres unmarked) [Compound 760, 9(E)-4-piperazine-{N-4-(9(E)-oxime-erythromycin A-2(E)butenyl)}-2-butenyloxime-erythromycin A] | 10 | E (Growth of test organism was inhibited 35% or less.) | 14 | D (Growth of test organism was inhibited 35% or more and 55% or less.) |  |  | Inhibition activity (inhibition ring mm) A. niger ATCC 6275 GYF ([2]; 10 μg/8 mm disk): 15 mm; Transparency of the inhibition ring A. niger ATCC 6275 GYF ([2]; 10 μg/8 mm disk): E (Growth of test organism was inhibited 35% or less.); Inhibition activity (inhibition ring mm) A. niger ATCC 6275 GYF ([2]; 50 μg/8 mm disk): 16 mm; Transparency of the inhibition ring A. niger ATCC 6275 GYF ([2]; 50 μg/8 mm disk): E (Growth of test organism was inhibited 35% or less.)
CCC1OC(=O)C(C)C(OC2CC(C)(OC)C(O)C(C)O2)C(C)C(OC2OC(C)CC(N(C)C)C2O)C(C)(O)CC(C)C(=NOCC=CCNCCNCC=CCON=C2C(C)CC(C)(O)C(OC3OC(C)CC(N(C)C)C3O)C(C)C(OC3CC(C)(OC)C(O)C(C)O3)C(C)C(=O)OC(CC)C(C)(O)C(O)C2C)C(C)C(O)C1(C)O (centres unmarked) [Compound 761] |  |  |  |  | 14 | E (Growth of test organism was inhibited 35% or less.) | 
CCC1OC(=O)C(C)C(OC2CC(C)(OC)C(O)C(C)O2)C(C)C(OC2OC(C)CC(N(C)C)C2O)C(C)(O)CC(C)C(=NOCC=CCN2CCNCC2)C(C)C(O)C1(C)O (centres unmarked) [Compound 762] |  |  | 13 | D (Growth of test organism was inhibited 35% or more and 55% or less.) |  |  | Inhibition activity (inhibition ring mm) A. niger ATCC 6275 GYF ([2]; 10 μg/8 mm disk): 14 mm; Transparency of the inhibition ring A. niger ATCC 6275 GYF ([2]; 10 μg/8 mm disk): E (Growth of test organism was inhibited 35% or less.); Inhibition activity (inhibition ring mm) A. niger ATCC 6275 GYF ([2]; 50 μg/8 mm disk): 15 mm; Transparency of the inhibition ring A. niger ATCC 6275 GYF ([2]; 50 μg/8 mm disk): E (Growth of test organism was inhibited 35% or less.)
CCC1OC(=O)C(C)C(OC2CC(C)(OC)C(O)C(C)O2)C(C)C(OC2OC(C)CC(N(C)C)C2O)C(C)(O)CC(C)C(=NOCCCCON=C2C(C)CC(C)(O)C(OC3OC(C)CC(N(C)C)C3O)C(C)C(OC3CC(C)(OC)C(O)C(C)O3)C(C)C(=O)OC(CC)C(C)(O)C(O)C2C)C(C)C(O)C1(C)O (centres unmarked) [Compound 764, 9(E)-4-{9(E)-oxime-erythromycin A}-2(E)buthyloxime-erythromycin A] |  |  | 9 | E (Growth of test organism was inhibited 35% or less.) |  |  | 
